Laboratory results published in ChEMBL document CHEMBL1201862, “PubChem BioAssay data set” (2004).
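Five concentrations, 48 hours, 96-well plates. GI50 marks 50% less growth.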 Active and inactive are the calls of the source. Cut-off read from the data, not from the text of the source: active = GI50 up to about 1.1 µM and inactive = higher.

Key:
Assay in all cases: inhibition of tumour cell growth, NCI panel, 48 h
786-0 = system: 786-0
A498 = system: A498
A549 = system: A549
ACHN = system: ACHN
BT-549 = system: BT-549
CAKI-1 = system: CAKI-1
CCRF-CEM = system: CCRF-CEM
COLO 205 = system: COLO 205
DU-145 = system: DU-145
EKVX = system: EKVX
HCC 2998 = system: HCC 2998
HCT-116 = system: HCT-116
HCT-15 = system: HCT-15
HL-60 = system: HL-60
HOP-62 = system: HOP-62
HOP-92 = system: HOP-92
HT-29 = system: HT-29
Hs-578T = system: Hs-578T
IGROV-1 = system: IGROV-1
K562 = system: K562
LOX IMVI = system: LOX IMVI
M14 = system: M14
MCF7 = system: MCF7
MDA-MB-231 = system: MDA-MB-231
MDA-MB-435 = system: MDA-MB-435
MDA-N = system: MDA-N
MOLT-4 = system: MOLT-4
Malme-3M = system: Malme-3M
NCI-H226 = system: NCI-H226
NCI-H23 = system: NCI-H23
NCI-H460 = system: NCI-H460
NCI-H522 = system: NCI-H522
NCI/ADR-RES = system: NCI/ADR-RES
OVCAR-3 = system: OVCAR-3
OVCAR-4 = system: OVCAR-4
OVCAR-5 = system: OVCAR-5
OVCAR-8 = system: OVCAR-8
PC-3 = system: PC-3
RPMI-8226 = system: RPMI-8226
SF-268 = system: SF-268
SF-295 = system: SF-295
SF-539 = system: SF-539
SK-MEL-28 = system: SK-MEL-28
SK-MEL-2 = system: SK-MEL-2
SK-MEL-5 = system: SK-MEL-5
SK-OV-3 = system: SK-OV-3
SN12C = system: SN12C
SNB-19 = system: SNB-19
SR = system: SR
SW-620 = system: SW-620
T47D = system: T47D
TK-10 = system: TK-10
U-251 = system: U-251
UACC-257 = system: UACC-257
UACC-62 = system: UACC-62
UO-31 = system: UO-31
KM12 = system: KM12
RXF 393 = system: RXF 393
SNB-75 = system: SNB-75

Measured: GI50

c1ccc(C2OCC(OC3CCCCO3)CO2)cc1 (stereo not given)
inactive: 786-0 > 100 µM | A498 > 100 µM | A549 > 100 µM | ACHN > 100 µM | BT-549 > 100 µM | CAKI-1 > 100 µM | CCRF-CEM > 10 µM | COLO 205 > 100 µM | DU-145 > 100 µM | EKVX > 100 µM | HCC 2998 > 100 µM | HCT-116 > 100 µM | HL-60 > 100 µM | HOP-62 > 100 µM | HOP-92 > 100 µM | HT-29 > 100 µM | Hs-578T 2.36 µM | IGROV-1 > 100 µM | K562 > 100 µM | LOX IMVI > 100 µM | M14 > 100 µM | MCF7 > 100 µM | MDA-MB-231 > 100 µM | MDA-MB-435 > 100 µM | MDA-N > 100 µM | MOLT-4 5.24 µM | Malme-3M > 100 µM | NCI-H226 > 100 µM | NCI-H23 > 100 µM | NCI-H460 > 100 µM | NCI-H522 > 100 µM | NCI/ADR-RES > 100 µM | OVCAR-3 > 100 µM | OVCAR-4 > 100 µM | OVCAR-5 > 100 µM | OVCAR-8 > 100 µM | PC-3 > 100 µM | RPMI-8226 > 100 µM | SF-268 > 100 µM | SF-295 > 100 µM | SF-539 > 100 µM | SK-MEL-28 > 100 µM | SK-MEL-2 > 100 µM | SK-MEL-5 > 100 µM | SK-OV-3 > 100 µM | SN12C > 100 µM | SNB-19 > 100 µM | SR > 100 µM | SW-620 > 100 µM | T47D > 100 µM | TK-10 > 100 µM | U-251 > 100 µM | UACC-257 > 100 µM | UACC-62 > 100 µM | UO-31 75.5 µM
> 100 µM: HCT-15

C[N+]1(C)CCc2cc(O)c(O)cc2C1Cc1ccc(O)c(O)c1 (stereo not given)
active: SK-MEL-2 1.11 µM
inactive: 786-0 40.6 µM | A498 > 100 µM | A549 > 100 µM | ACHN 35.3 µM | BT-549 > 100 µM | CAKI-1 50.9 µM | COLO 205 > 100 µM | DU-145 > 100 µM | EKVX > 100 µM | HCT-116 22.4 µM | HL-60 18.3 µM | HOP-62 > 100 µM | HOP-92 27.1 µM | HT-29 34.8 µM | Hs-578T 86.9 µM | IGROV-1 28 µM | K562 34 µM | KM12 > 100 µM | LOX IMVI 27.7 µM | M14 92.7 µM | MCF7 19.8 µM | MDA-MB-231 31.1 µM | MDA-MB-435 20.2 µM | MDA-N 32.2 µM | MOLT-4 23 µM | Malme-3M 32.1 µM | NCI-H226 39.2 µM | NCI-H23 > 100 µM | NCI-H460 63.7 µM | NCI-H522 22.5 µM | NCI/ADR-RES 79.4 µM | OVCAR-3 69 µM | OVCAR-4 22.1 µM | OVCAR-5 > 100 µM | OVCAR-8 35.2 µM | PC-3 > 100 µM | RPMI-8226 22.2 µM | RXF 393 39.9 µM | SF-268 39.6 µM | SF-295 > 100 µM | SF-539 50.4 µM | SK-MEL-28 99.8 µM | SK-MEL-5 48.2 µM | SK-OV-3 > 100 µM | SN12C 38.2 µM | SNB-19 > 100 µM | SR 34.8 µM | SW-620 28.4 µM | T47D 23 µM | TK-10 94.8 µM | U-251 > 100 µM | UACC-257 31.2 µM | UACC-62 29.9 µM | UO-31 92 µM
36 µM: HCT-15

CCOC(=O)CC/C(=N/Nc1ccc(Cl)cc1[N+](=O)[O-])C(=O)OCC
> 100 µM: HCT-15
inactive: 786-0 > 100 µM | A498 34.8 µM | A549 > 100 µM | ACHN > 100 µM | BT-549 > 100 µM | CCRF-CEM > 100 µM | COLO 205 > 100 µM | DU-145 > 100 µM | EKVX > 100 µM | HCC 2998 26.2 µM | HCT-116 > 100 µM | HL-60 > 100 µM | HOP-62 > 100 µM | HOP-92 11.4 µM | HT-29 > 100 µM | Hs-578T > 100 µM | IGROV-1 > 100 µM | K562 > 100 µM | KM12 > 100 µM | LOX IMVI > 100 µM | M14 > 100 µM | MCF7 > 100 µM | MDA-MB-231 > 100 µM | MDA-MB-435 > 100 µM | MDA-N > 100 µM | MOLT-4 > 100 µM | Malme-3M > 100 µM | NCI-H226 > 100 µM | NCI-H23 > 100 µM | NCI-H460 > 100 µM | NCI-H522 > 100 µM | NCI/ADR-RES > 100 µM | OVCAR-3 > 100 µM | OVCAR-4 > 100 µM | OVCAR-5 > 100 µM | OVCAR-8 > 100 µM | PC-3 > 100 µM | RPMI-8226 > 100 µM | RXF 393 > 100 µM | SF-268 > 100 µM | SF-295 > 100 µM | SF-539 > 100 µM | SK-MEL-28 > 100 µM | SK-MEL-2 > 100 µM | SK-MEL-5 > 100 µM | SK-OV-3 > 100 µM | SN12C > 100 µM | SNB-19 > 100 µM | SNB-75 61.8 µM | SR 45.7 µM | SW-620 > 100 µM | T47D 93.3 µM | TK-10 > 100 µM | U-251 > 100 µM | UACC-257 > 100 µM | UACC-62 > 100 µM | UO-31 > 100 µM

O=C(Nc1cc(Cl)c(I)c(Cl)c1)C(F)(F)F
inactive: 786-0 29 µM | A498 22.9 µM | ACHN 30.3 µM | BT-549 25.9 µM | CAKI-1 19.9 µM | CCRF-CEM 24.8 µM | COLO 205 21.5 µM | DU-145 42 µM | EKVX 18.3 µM | HCC 2998 20 µM | HCT-116 24.5 µM | HL-60 19.2 µM | HOP-62 31.2 µM | HOP-92 20.3 µM | HT-29 19.8 µM | Hs-578T 22.4 µM | IGROV-1 27.2 µM | K562 28.2 µM | KM12 27.5 µM | M14 23.2 µM | MCF7 38.4 µM | MDA-MB-231 30.1 µM | MDA-MB-435 30.3 µM | MDA-N 35.8 µM | MOLT-4 26.5 µM | Malme-3M > 10 µM | NCI-H226 23.1 µM | NCI-H23 26.2 µM | NCI-H460 27.1 µM | NCI-H522 21.7 µM | NCI/ADR-RES 34.8 µM | OVCAR-3 24.9 µM | OVCAR-4 31.1 µM | OVCAR-5 22.8 µM | OVCAR-8 20.1 µM | PC-3 31.1 µM | RPMI-8226 31.1 µM | RXF 393 16.7 µM | SF-268 27.1 µM | SF-295 33.3 µM | SF-539 > 10 µM | SK-MEL-28 25.2 µM | SK-MEL-5 18.7 µM | SK-OV-3 31 µM | SN12C 35.5 µM | SNB-19 35.9 µM | SNB-75 20.8 µM | SR 30.8 µM | SW-620 45.3 µM | T47D 25.8 µM | U-251 40.4 µM | UACC-257 45.6 µM | UACC-62 20.3 µM | UO-31 23.6 µM
18 µM: HCT-15

COC(=O)[C@H](Cc1c[nH]c2ccccc12)NC(=O)c1ccc(CNC(=O)/C=C/c2cccc(Oc3ccccc3)c2)cc1
inactive: 786-0 > 100 µM | A498 > 100 µM | A549 92.9 µM | ACHN > 100 µM | BT-549 39.9 µM | CAKI-1 > 100 µM | CCRF-CEM 56.1 µM | COLO 205 > 100 µM | DU-145 > 100 µM | EKVX > 100 µM | HCC 2998 89.9 µM | HCT-116 > 100 µM | HOP-62 > 100 µM | HOP-92 20.2 µM | HT-29 > 100 µM | Hs-578T 34.7 µM | IGROV-1 > 100 µM | K562 63.5 µM | KM12 > 100 µM | M14 23.2 µM | MCF7 > 100 µM | MDA-MB-231 > 100 µM | MDA-MB-435 5.7 µM | MDA-N 5.38 µM | MOLT-4 9.06 µM | Malme-3M 22.8 µM | NCI-H226 > 100 µM | NCI-H23 52.6 µM | NCI-H460 83 µM | NCI/ADR-RES > 100 µM | OVCAR-3 > 100 µM | OVCAR-4 19.5 µM | OVCAR-5 > 100 µM | OVCAR-8 > 100 µM | PC-3 > 100 µM | RPMI-8226 62.4 µM | RXF 393 7.73 µM | SF-268 > 100 µM | SF-295 > 100 µM | SK-MEL-28 29.2 µM | SK-MEL-2 18.9 µM | SK-MEL-5 30.3 µM | SK-OV-3 > 100 µM | SN12C > 100 µM | SNB-19 91.6 µM | SNB-75 79.1 µM | SR 22.4 µM | SW-620 > 100 µM | T47D > 100 µM | TK-10 > 100 µM | U-251 > 100 µM | UACC-257 15.7 µM | UACC-62 36.1 µM | UO-31 > 100 µM
81.7 µM: HCT-15
